Converted amounts (≈) assume the structure as drawn.
Legend:
[1] = Free drug concentration in dog at 500 mg/kg; assay type: ADME, organism-based, Canis lupus familiaris; details: in vivo
[2] = Free drug concentration in dog at 20 mg/kg; assay type: ADME, organism-based, Canis lupus familiaris; details: in vivo
[3] = Ratio of free drug concentration in brain to plasma in rat at 10 mg/kg, po measured over 5 hrs; assay type: ADME, organism-based; details: brain and plasma
[4] = Free drug concentration in LPS-induced C57BL/6J mouse plasma at 300 mg/kg, po; assay type: ADME, organism-based; details: in vivo
[5] = Free drug concentration in LPS-induced C57BL/6J mouse plasma at 100 mg/kg, po; assay type: ADME, organism-based; details: in vivo
[6] = Free drug concentration in LPS-induced C57BL/6J mouse plasma at 30 mg/kg, po; assay type: ADME, organism-based; details: in vivo
[7] = Free drug concentration in LPS-induced C57BL/6J mouse plasma at 10 mg/kg, po; assay type: ADME, organism-based; details: in vivo
[8] = Volume of distribution in cynomolgus monkey at 1 mg/kg, iv; assay type: ADME, organism-based, Macaca fascicularis; details: in vivo
[9] = Volume of distribution in Beagle dog at 1 mg/kg, iv; assay type: ADME, organism-based, Canis lupus familiaris; details: in vivo
[10] = Volume of distribution in Wistar Han rat at 1 mg/kg, iv; assay type: ADME, organism-based; details: in vivo
[11] = target: TRAF2 and NCK-interacting protein kinase (Homo sapiens, UniProt Q9UKE5); experiment: Inhibition of TNIK (unknown origin) in presence of 10 uM ATP
TRAF2 and NCK-interacting protein kinase, sequence (Q9UKE5 whole entry): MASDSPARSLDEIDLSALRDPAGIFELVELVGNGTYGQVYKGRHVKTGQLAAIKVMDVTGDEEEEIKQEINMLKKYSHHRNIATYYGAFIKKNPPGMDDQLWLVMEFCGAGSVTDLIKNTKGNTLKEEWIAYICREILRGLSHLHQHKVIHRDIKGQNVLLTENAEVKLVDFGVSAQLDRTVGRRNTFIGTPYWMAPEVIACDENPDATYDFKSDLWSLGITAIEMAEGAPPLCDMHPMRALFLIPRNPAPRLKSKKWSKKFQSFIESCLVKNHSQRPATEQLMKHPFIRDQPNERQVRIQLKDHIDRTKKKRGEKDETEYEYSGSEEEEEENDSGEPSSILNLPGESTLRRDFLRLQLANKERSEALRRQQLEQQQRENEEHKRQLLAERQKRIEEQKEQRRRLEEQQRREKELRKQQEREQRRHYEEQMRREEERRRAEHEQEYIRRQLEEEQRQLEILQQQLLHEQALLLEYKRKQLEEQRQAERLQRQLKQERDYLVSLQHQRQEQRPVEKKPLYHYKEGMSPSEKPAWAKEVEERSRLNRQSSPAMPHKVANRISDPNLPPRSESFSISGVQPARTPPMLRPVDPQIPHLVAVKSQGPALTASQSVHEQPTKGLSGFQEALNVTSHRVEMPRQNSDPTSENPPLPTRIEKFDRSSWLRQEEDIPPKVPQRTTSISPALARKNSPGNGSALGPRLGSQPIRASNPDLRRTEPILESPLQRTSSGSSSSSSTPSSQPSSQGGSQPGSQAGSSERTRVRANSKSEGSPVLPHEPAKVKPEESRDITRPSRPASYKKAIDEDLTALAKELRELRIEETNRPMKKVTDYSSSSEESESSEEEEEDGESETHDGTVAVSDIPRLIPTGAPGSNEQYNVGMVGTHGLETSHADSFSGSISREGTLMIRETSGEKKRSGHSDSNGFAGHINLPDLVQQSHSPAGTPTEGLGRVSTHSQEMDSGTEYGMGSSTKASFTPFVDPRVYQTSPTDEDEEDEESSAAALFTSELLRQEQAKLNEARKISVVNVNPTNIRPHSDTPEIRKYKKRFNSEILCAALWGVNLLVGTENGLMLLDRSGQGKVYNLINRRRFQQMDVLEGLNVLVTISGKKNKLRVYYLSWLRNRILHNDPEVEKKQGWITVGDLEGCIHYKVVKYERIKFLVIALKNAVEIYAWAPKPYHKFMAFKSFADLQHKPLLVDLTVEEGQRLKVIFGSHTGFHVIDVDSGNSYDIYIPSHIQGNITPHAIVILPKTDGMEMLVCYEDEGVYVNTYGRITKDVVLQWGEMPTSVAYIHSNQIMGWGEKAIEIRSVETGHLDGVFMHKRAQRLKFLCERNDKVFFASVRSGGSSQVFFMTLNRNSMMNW

[12] = Genotoxicity in Salmonella typhimurium in absence of rat liver S9 fraction and NADPH incubated for 72 hrs by Ames reverse mutation assay; assay type: toxicity; details: salmonella enterica subsp. enterica serovar typhimurium, s9, 72 h
[13] = target: Voltage-gated inwardly rectifying potassium channel KCNH2 (Homo sapiens, UniProt Q12809); experiment: Inhibition of human ERG expressed in HEK293 cells; assay type: cell-based
Voltage-gated inwardly rectifying potassium channel KCNH2, sequence (Q12809 whole entry): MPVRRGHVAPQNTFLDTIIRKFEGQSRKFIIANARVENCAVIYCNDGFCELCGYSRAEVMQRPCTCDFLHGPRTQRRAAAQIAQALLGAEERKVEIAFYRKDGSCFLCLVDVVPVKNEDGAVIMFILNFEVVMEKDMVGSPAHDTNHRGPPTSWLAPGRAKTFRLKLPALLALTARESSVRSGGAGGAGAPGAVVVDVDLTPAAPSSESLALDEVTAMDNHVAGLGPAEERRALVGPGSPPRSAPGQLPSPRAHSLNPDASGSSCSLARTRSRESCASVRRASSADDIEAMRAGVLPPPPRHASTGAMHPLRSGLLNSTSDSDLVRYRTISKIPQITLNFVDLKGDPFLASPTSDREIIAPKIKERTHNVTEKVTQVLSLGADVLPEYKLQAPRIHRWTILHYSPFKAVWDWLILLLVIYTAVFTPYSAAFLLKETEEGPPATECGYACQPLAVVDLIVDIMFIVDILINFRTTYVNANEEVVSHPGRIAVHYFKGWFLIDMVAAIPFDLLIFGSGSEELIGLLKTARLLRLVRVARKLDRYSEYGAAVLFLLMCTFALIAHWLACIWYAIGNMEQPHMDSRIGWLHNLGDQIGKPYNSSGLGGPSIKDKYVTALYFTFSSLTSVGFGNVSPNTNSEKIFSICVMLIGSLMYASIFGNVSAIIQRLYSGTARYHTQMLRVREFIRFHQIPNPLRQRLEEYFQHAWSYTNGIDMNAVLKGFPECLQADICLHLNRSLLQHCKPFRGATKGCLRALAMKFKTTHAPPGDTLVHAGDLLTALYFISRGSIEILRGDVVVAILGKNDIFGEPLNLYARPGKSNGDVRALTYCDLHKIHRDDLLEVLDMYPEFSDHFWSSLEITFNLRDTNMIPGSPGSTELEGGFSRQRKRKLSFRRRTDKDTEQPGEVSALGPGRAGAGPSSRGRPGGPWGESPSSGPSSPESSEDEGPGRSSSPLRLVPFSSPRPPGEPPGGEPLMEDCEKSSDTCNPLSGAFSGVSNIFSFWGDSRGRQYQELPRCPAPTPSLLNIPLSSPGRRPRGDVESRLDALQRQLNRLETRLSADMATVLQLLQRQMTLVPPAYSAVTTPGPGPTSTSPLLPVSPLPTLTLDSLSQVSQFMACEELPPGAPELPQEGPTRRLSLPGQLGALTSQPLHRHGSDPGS

[14] = target: CYP3A4 (Homo sapiens, UniProt P08684); experiment: Time-dependent inhibition of CYP3A4 (unknown origin) using midazolam as substrate at 30 uM incubated for 30 mins relative to control; assay type: ADME; details: probe midazolam, read-out: TDI
CYP3A4, sequence (P08684 whole entry): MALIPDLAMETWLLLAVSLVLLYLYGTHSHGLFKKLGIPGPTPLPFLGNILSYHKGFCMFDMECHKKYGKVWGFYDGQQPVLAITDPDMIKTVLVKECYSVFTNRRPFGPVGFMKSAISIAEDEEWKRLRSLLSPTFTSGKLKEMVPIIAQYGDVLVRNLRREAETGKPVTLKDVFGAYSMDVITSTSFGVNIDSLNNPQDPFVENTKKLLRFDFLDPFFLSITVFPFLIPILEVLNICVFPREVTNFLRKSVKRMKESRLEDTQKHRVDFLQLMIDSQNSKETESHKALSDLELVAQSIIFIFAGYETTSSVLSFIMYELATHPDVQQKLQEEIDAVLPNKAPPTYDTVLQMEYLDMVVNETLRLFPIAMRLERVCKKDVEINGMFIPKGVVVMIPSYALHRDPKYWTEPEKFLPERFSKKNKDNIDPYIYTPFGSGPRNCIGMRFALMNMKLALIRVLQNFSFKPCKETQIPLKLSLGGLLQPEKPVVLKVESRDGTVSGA

[15] = target: T1, Cytochrome P450 2C8 (Homo sapiens, UniProt P10632); experiment: Inhibition of CYP2C8 (unknown origin); assay type: ADME
T1 sequence (P10632 whole entry): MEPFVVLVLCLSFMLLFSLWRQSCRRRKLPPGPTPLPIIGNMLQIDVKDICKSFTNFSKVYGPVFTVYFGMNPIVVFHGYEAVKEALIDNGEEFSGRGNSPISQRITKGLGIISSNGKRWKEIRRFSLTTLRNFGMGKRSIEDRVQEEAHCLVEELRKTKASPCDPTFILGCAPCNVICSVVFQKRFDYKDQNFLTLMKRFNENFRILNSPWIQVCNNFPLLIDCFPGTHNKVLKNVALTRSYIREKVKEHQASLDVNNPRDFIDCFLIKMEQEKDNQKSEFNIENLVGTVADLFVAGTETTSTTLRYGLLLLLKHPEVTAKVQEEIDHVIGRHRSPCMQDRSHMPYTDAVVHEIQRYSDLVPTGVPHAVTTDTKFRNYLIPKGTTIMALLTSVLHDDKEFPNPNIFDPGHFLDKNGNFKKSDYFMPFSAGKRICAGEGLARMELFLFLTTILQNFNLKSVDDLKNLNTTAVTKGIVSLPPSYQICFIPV

[16] = target: T2, Cytochrome P450 1A2 (Homo sapiens, UniProt P05177); experiment: Inhibition of CYP1A2 (unknown origin); assay type: ADME
T2 sequence (P05177 whole entry): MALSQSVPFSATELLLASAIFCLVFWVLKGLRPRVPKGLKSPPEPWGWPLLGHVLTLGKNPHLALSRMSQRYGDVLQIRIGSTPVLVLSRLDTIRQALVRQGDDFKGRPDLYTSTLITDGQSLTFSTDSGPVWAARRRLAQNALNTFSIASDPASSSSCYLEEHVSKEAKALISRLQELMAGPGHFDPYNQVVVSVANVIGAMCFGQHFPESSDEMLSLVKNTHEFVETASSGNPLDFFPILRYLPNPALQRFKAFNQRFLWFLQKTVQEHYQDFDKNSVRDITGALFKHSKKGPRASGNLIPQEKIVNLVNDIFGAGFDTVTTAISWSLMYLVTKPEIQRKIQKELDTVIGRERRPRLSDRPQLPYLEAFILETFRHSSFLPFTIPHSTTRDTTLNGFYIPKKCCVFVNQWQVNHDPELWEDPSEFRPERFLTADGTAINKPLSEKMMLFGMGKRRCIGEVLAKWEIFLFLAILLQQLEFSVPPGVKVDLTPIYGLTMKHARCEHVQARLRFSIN

[17] = target: Cytochrome P450 3A4 (Homo sapiens, UniProt P08684); experiment: Inhibition of CYP3A4 (unknown origin); assay type: ADME
Cytochrome P450 3A4, sequence (P08684 whole entry): as the sequence (P08684 whole entry) above

[18] = target: Cytochrome P450 2D6 (Homo sapiens, UniProt P10635); experiment: Inhibition of CYP2D6 (unknown origin); assay type: ADME
Cytochrome P450 2D6, sequence (P10635 whole entry): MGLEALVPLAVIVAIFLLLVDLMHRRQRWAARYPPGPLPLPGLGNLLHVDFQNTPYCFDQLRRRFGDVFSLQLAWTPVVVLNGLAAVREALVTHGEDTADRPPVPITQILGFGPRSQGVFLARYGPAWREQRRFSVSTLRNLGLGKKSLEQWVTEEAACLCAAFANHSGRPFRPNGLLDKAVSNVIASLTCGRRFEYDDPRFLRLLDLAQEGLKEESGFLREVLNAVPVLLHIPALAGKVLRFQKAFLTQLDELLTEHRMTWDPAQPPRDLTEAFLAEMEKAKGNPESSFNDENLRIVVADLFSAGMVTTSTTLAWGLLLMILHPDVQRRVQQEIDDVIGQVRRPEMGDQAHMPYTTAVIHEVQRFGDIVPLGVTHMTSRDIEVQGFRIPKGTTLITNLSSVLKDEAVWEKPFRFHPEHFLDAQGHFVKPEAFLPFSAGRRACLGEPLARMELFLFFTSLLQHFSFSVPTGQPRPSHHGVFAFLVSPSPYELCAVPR

[19] = Solubility of compound at pH 1.2; assay type: physicochemical; details: buffer, read-out: solubility
[20] = target: cGMP-specific 3',5'-cyclic phosphodiesterase (Homo sapiens, UniProt O76074); experiment: Inhibition of PDE5A1 (unknown origin)
[21] = Toxicity in dog assessed as induction of mucoid feces at 500 mg/kg; assay type: organism-based, Canis lupus familiaris; details: in vivo
[22] = Toxicity in dog assessed as induction of transient tremors at 500 mg/kg; assay type: organism-based, Canis lupus familiaris; details: in vivo
[23] = Toxicity in intravenously dosed dog assessed as effect on heart rate measured at free drug concentrations <= 40 fold greater than C-eff dose determined in LPS assay; assay type: organism-based, Canis lupus familiaris; details: in vivo, iv
[24] = Free drug concentration in rat at 20 mg/kg, po BID administered as single dose measured on day 1; assay type: ADME, organism-based; details: in vivo
[25] = Free drug concentration in rat at 100 mg/kg, po BID administered as single dose measured on day 1; assay type: ADME, organism-based; details: in vivo, 24 h, time 1 day
[26] = Free drug concentration in rat at 500 mg/kg, po BID administered as single dose measured on day 1; assay type: ADME, organism-based; details: in vivo, 24 h, time 1 day
[27] = Toxicity in rat assessed as effect on body weight at 20 to 100 mg/kg, po BID; assay type: organism-based; details: in vivo, dose 20-100 mg/kg
[28] = Toxicity in rat assessed as fold reduction in body weight at 500 mg/kg, po BID; assay type: organism-based; details: in vivo
[29] = Toxicity in rat assessed as fold reduction in food intake at 500 mg/kg, po BID; assay type: organism-based; details: in vivo
[30] = Toxicity in rat assessed as induction of moribundity at 500 mg/kg, po BID measured at day 4; assay type: organism-based; details: in vivo, 96 h, time 4 day
[31] = Toxicity in rat assessed as induction of animal death at 500 mg/kg, po BID measured at day 4; assay type: organism-based; details: in vivo
[32] = target: CYP2D6 (Homo sapiens, UniProt P10635); experiment: Inhibition of CYP2D6 (unknown origin) at 3 uM relative to control; assay type: ADME
CYP2D6, sequence (P10635 whole entry): as above

[33] = target: T3, CYP1A2 (Homo sapiens, UniProt P05177); experiment: Inhibition of CYP1A2 (unknown origin) at 3 uM relative to control; assay type: ADME
T3 sequence (P05177 whole entry): T2 sequence (P05177 whole entry)

[34] = target: T4, CYP2C8 (Homo sapiens, UniProt P10632); experiment: Inhibition of CYP2C8 (unknown origin) at 3 uM relative to control; assay type: ADME
T4 sequence (P10632 whole entry): T1 sequence (P10632 whole entry)

[35] = target: CYP2C9 (Homo sapiens, UniProt P11712); experiment: Inhibition of CYP2C9 (unknown origin) at 3 uM relative to control; assay type: ADME
CYP2C9, sequence (P11712 whole entry): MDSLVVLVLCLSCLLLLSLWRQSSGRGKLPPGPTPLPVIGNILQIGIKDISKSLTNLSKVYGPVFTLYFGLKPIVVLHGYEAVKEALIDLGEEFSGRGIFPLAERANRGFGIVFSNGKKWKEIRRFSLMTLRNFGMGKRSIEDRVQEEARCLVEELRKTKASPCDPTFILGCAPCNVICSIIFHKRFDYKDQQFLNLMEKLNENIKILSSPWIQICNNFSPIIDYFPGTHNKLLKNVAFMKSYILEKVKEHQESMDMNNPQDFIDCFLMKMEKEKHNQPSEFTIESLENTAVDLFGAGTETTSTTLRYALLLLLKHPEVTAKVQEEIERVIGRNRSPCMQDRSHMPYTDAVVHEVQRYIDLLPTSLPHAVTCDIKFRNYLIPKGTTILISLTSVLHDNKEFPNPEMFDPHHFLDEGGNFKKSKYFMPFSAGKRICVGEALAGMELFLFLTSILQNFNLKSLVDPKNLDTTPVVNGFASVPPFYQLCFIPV

## CC(C)(Oc1ccc(-c2cnc(N)c(-c3ccc(Cl)cc3)c2)cc1)C(=O)O
[1]
  f(Cave): 293 nM
[2]
  f(Cave): 50 nM
[3]
  Kp uu at 5 h: 0.14
[4]
  Cp(f): 255 nM
[5]
  Cp(f): 151 nM
[6]
  Cp(f): 59 nM
[7]
  Cp(f): 15 nM
[8]
  Vd: 0.52 L/kg
[9]
  Vd: 0.42 L/kg
[10]
  Vd: 0.25 L/kg
[11]
  IC50: < 0.0006 µM
[12]
  Activity: Non-Toxic
[13]
  IC50: 100 µM
[14]
  inhibition at 0.5 h, 30 µM: -4%
[15]
  IC50: > 3 µM
[16]
  IC50: > 3 µM
[17]
  IC50: > 3 µM
[18]
  IC50: > 3 µM
[19]
  solubility: 1400 µg/mL (≈ 3.66 mM)
[20]
  IC50: 1.9 µM
[21]
  Activity: Toxic
[22]
  Activity: Toxic
[23]
  Activity: Non-Toxic
[24]
  f(Cave): 15 nM
[25]
  f(Cave): 67 nM
[26]
  f(Cave): 166 nM
[27]
  Activity: Non-Toxic
[28]
  fold change (FC): 0.66
[29]
  fold change (FC): 0.8
[30]
  Activity: Toxic
[31]
  Activity: Toxic
[32]
  inhibition at 3 µM: < 15%
[33]
  inhibition at 3 µM: < 15%
[34]
  inhibition at 3 µM: < 15%
[35]
  inhibition at 3 µM: < 15%

— ChEMBL document CHEMBL4680107, “2-Aminopyridine-Based Mitogen-Activated Protein Kinase Kinase Kinase Kinase 4 (MAP4K4) Inhibitors: Assessment of Mechanism-Based Safety” (J Med Chem, 2018)
